Measured values reported in patent US11278550B2, “Compositions and methods for the treatment of Prader-Willi syndrome” (Duke University, priority 2016, dated 2022).
Entries after “also recorded” stand apart in the source; their conditions may differ.

How the values were obtained:
m+/pΔS-U and WT mice = test: Toxicity evaluation in mice (body weight, neurological screening, blood, histopathology); format: in vivo, mouse
Procedure: Brain, liver, lung, kidney and heart tissues from 3-month-old mice were fixed in 10% neutral buffered formalin (NBF: 10 ml of Formalin (37% stock), 90 ml of deionized water, 4 g/liter of NaH2PO4, 6.5 g/liter Na2HPO4), embedded in paraffin, sectioned at 5 μm, stained with hematoxylin and eosin, and images examined by a board-certified toxicological pathologist.
Blood was collected from 3-month-old mice into microcontainers or hematology assay tubes using jugular vein bleeding puncture. A serum metabolic panel was obtained using the Heska Dry Chem analyzer (Cuattro Veterinary USA). The metabolic panel contained chem and electrolyte, liver and kidney functions. For hematology analysis, we tested whole blood using Procyte (IDEXX).
General health of mice was evaluated using a modified version of standard test battery for behavioral phenotyping (see 57). Observational assessment included the evaluation of body weight, body core temperature, overt behavioral signs (coat appearance, body posture and secretary signs) and sensory functions (visual ability, audition, tactile percep- tion and vestibular function). Table 6 indicates the mouse sex and age information.

human PWS fibroblasts [1] = test: Chromatin immunoprecipitation (ChIP-qPCR) of H3K9me2/H3K9me3; format: cell-based
Procedure: Histone methylations on the SNRPN locus in human fibroblasts were analyzed by chromatin immunoprecipitation assay (ChIP) using the protocol as previously reported (see Fulmer-Smentek et al., Human molecular genetics 10, 645-652 (2001)). ChIP assay was performed using ChIP-IT Express magnetic kit (Active Motif) according to the manufacturer's instructions with modification for the fixation and reverse-crosslinking steps. Briefly, native chromatin was prepared without fixation and enzymatic digestions to average 150-500 bp sized chromatin. 20 μg of chromatin was added to the specific antibodies (2 μg) or species control isotype antibodies for each immunoprecipitation reaction. The antibody-chromatin complexes were bound to protein G magnetic beads for recovering chromatin immunoprecipitates. RNase- and proteinase K-treated DNA was purified using PCR purification columns (Promega). DNA recovery was quantified by real time PCR performed on the LightCycler480 instrument (Roche) using SsoAdvanced Universal SYBR green Supermix (Biorad). Antibodies were anti-rabbit acetylated H3 (Millipore 06-599), anti-mouse monoclonal Histone H3 dimethyl K9 (Abcam 1220) and Histone H3 trimethyl K9 (Millipore, 07-442) antibodies. qPCR reactions were performed with the following cycling parameters: at 95° C./5 min followed by 40 cycles of 95° C./30 sec, 60° C./60 sec. Data was normalized to the total input.

human PWS fibroblasts [2] = test: Chromatin accessibility assay; format: cell-based; details: vs vehicle-treated controls
Procedure: Chromatin accessibility assay was performed to investigate whether G9a inhibitors change open/close state of the imprinted cluster in the PWS-IC region according to Pai, C.C., et al. Nature communications 5, 4091 (2014) with slight modifications. Briefly, 3 days after drug treatment in human PWS fibroblasts, the cells were harvested and lysed with lysis buffer (0.5% NP-40, 15 mM Tris-HCl [pH 7.4], 0.15 mM Spermidine, 0.5 mM Spermine, 15 mM NaCl, 60 mM KCl, 1 mM DTT, 0.1 mM PMSF, 0.5M Sucrose, Protease and Phosphatase inhibitor cocktail (Roche)). The lysed cells were collected by centrifugation (3000 RPM/10 min/4° C.) and rinsed with digestive buffer (15 mM Tris-HCl [pH 7.4], 15 mM NaCl, 60 mM KCl, 4 mM MgCl2, 1 mM DTT, 0.1 mM PMSF, 0.35M Sucrose). After rinsing the cell pellets, MNase (NEB) was added to digest open status of chromatins, followed by genomic qPCR to determine changes in amount of SNRPN and other imprinted genes.

Row | SMILES | loss of body weight (m+/pΔS-U and WT mice; WT mice) | general health and neurological screening (m+/pΔS-U and WT mice; blinded) | histopathological analyses (m+/pΔS-U and WT mice; brain, liver, kidney, lung and heart, P90 / 3 months) | hematological analysis (liver and kidney functions, lipid and protein metabolism) (m+/pΔS-U and WT mice; treated m+/pΔS-U and WT mice) | H3K9me2 in the region associated with NDN (human PWS fibroblasts [1]) | H3K9me2 enriched at the PWS-IC after treatment (human PWS fibroblasts [1]; ChIP-qPCR, reduction from 17-fold untreated, p<0.05) | H3K9me3 at host transcript of SNORD116 after treatment (human PWS fibroblasts [1]; ChIP-qPCR, reduction from 24-fold untreated, p<0.05) | H3K9me2 at host transcript of SNORD116 after treatment (human PWS fibroblasts [1]; ChIP-qPCR, reduction from 122-fold untreated, p<0.05) | level of H3K9me2 (and H3K9me3) in the PWS-IC (human PWS fibroblasts [1]; in words) | chromatin accessibility across the imprinted domains incl. SNRPN and SNORD116 (human PWS fibroblasts [2])
1 | COc1cc2c(NC3CCN(C(C)C)CC3)nc(N3CCC(F)(F)CC3)nc2cc1OCCCN1CCCC1 [UNC0642] | not observed | did not reveal any substantial abnormalities | did not reveal any abnormalities; also recorded: no significant compound related lesions | within normal ranges |  |  |  |  |  | 
2 | COc1cc2c(NC3CCN(C(C)C)CC3)nc(C3CCCCC3)nc2cc1OCCCN1CCCC1 [UNC0638] |  |  |  |  | reduced | 3 fold | 2 fold | 4 fold | drastically reduced | more open and accessible
